Measurements as given in patent US11214578B2, “Urea/carbamates FAAH MAGL or dual FAAH/MAGL inhibitors and uses thereof” (Northeastern University, priority 2014, dated 2022).
pIC50: −log10 of the molar value.

Assays:
Assay type in all cases: biochemical
[1] = target: T1, Human FAAH (MBPΔTMhFAAH) (Homo sapiens, UniProt O00519); experiment: Fluorescent assay protocol for hFAAH; conditions: human FAAH (MBP fusion, ΔTM), procedure as for rFAAH
T1 construct: made in house; host or cells: E. coli (pMALcE4 vector)
T1 sequence (O00519 30-579 limits assumed): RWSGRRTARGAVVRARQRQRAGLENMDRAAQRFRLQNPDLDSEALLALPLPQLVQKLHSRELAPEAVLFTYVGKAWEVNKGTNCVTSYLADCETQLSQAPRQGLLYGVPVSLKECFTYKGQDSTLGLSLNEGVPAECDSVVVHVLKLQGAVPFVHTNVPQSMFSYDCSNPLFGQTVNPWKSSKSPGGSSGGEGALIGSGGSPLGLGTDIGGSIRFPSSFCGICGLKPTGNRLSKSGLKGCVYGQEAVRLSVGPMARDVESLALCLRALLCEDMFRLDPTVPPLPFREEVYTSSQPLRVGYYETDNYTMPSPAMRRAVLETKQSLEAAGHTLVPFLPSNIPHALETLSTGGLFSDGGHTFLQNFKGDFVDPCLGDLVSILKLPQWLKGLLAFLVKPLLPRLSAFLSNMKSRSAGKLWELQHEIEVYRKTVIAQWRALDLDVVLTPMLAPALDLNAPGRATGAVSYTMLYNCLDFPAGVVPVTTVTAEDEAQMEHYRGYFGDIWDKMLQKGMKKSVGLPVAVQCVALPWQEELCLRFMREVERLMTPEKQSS
Procedure, shortened: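 MBP-fused ΔTM human FAAH from E. coli, pre-incubated 15 min at 25 °C with compound in 50 mM HEPES, 1 mM EDTA, 0.1% BSA, pH 7.4 (DMSO below 8%). Substrate AAMCA 20 μM (2×Km); fluorescence (ex 360/em 460) at 3 h gave % inhibition vs uninhibited control, triplicate, IC50 fitted.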

[2] = target: T2, Rat MAGL (rMAGL) (Rattus norvegicus, UniProt Q8R431); experiment: Fluorescent assay protocol for rMAGL; conditions: recombinant rat MAGL, procedure as for hMAGL; read-out: IC50 rMAGL
T2 construct: made in house; host or cells: E. coli
T2 sequence (Q8R431 1-303): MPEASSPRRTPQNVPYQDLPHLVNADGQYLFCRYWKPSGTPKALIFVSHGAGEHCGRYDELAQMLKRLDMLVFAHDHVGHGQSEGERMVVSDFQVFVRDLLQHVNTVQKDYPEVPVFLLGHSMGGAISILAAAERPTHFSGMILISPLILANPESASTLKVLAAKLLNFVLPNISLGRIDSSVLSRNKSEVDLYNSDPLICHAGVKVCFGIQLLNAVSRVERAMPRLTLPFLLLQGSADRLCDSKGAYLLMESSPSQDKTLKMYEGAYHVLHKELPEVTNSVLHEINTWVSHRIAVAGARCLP
Procedure, shortened: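 Rat MAGL run as for the human enzyme: AHMMCE substrate hydrolysis to fluorescent coumarin followed at 25° C. for 120 min, read every 15 min at 360/460 nm.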

[3] = target: T3, Human MAGL (hMAGL) (Homo sapiens, UniProt Q99685); experiment: Fluorescent assay protocol for hMAGL (AHMMCE substrate); conditions: recombinant human MAGL, AHMMCE substrate, 15 min preincubation; read-out: IC50 hMAGL
T3 construct: hexahistidine; made in house; host or cells: E. coli
T3 sequence (Q99685 1-303): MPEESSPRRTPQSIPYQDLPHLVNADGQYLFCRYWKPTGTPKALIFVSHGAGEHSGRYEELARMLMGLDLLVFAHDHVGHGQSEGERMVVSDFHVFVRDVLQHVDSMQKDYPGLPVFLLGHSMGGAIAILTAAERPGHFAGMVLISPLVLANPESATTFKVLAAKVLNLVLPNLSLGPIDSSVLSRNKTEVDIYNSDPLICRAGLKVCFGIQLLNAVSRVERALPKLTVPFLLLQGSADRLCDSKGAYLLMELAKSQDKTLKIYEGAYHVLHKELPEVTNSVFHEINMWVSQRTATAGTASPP
Procedure, shortened: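 Hydrolysis of AHMMCE by human MAGL was monitored at 25°C for 120 min, with fluorescence at 360/460 nm recorded every 15 min and converted to 4-methylcoumarin using external standards. IC50 values were derived from triplicate wells at each inhibitor concentration.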

[4] = target: T4, ΔTM rat FAAH (Rattus norvegicus, UniProt P97612); experiment: Fluorescent assay protocol for ΔTM rat FAAH (AAMCA substrate); conditions: 15 min preincubation, read-out: IC50 rFAAH
T4 construct: Preparation of Transmembrane Domain-Deleted Rat FAAH (ΔTM rFAAH); made in house; host or cells: E. coli
T4 sequence (P97612 30-579 limits assumed): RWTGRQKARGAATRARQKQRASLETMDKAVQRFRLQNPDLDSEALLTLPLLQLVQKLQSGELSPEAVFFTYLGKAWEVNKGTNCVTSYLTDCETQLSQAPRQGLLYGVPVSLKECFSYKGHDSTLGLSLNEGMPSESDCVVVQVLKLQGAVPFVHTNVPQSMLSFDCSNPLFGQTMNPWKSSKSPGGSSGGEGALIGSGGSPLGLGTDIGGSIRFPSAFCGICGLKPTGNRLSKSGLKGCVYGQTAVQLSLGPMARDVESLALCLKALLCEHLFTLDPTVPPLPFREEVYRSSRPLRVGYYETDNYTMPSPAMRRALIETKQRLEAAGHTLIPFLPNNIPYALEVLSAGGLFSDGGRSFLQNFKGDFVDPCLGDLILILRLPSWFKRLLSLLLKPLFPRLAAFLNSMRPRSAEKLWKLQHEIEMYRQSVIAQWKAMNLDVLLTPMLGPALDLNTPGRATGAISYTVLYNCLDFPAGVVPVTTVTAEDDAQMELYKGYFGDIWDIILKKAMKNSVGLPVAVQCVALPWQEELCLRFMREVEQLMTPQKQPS
Procedure, shortened: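 ΔTM rat FAAH (15 μg) was pre-incubated 15 min at 25° C with compound (screening at 1, 10 and 100 μM), then reacted with the fluorigenic substrate AAMCA. Percent inhibition came from fluorescence at 3 h (linear kinetics) relative to no-inhibitor controls, in triplicate.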

| Compound | pIC50 [1] | pIC50 [2] | pIC50 [3] | pIC50 [4] |
| --- | --- | --- | --- | --- |
| C[C@@H]1CN(C(=O)Nc2cccc(-c3cccc(C(N)=O)c3)c2)CCN1Cc1ccc2ccccc2n1 [Example 2, (R)—N-(3′-carbamoyl-[1,1′-biphenyl]-3-yl)-3-methyl-4-(quinolin-2-ylmethyl)piperazine-1-carboxamide] | < 6.00 | < 6.00 | < 6.00 | 6.00 to 6.96 |
| 6-Chloropyridin-2-yl 4-(benzhydryl)piperidine-1-carboxylate [Example 51] | 7.00 to 8.00 | < 6.00 | < 6.00 | 7.00 to 8.00 |
| O=C(N1CC(N2CCC(c3ccccc3)CC2)C1)n1cncn1 [Example 90] | 7.00 to 8.00 | 7.00 to 8.00 | 7.00 to 8.00 | 7.00 to 8.00 |
| Cc1ccc(S(=O)(=O)N2CCN(C(=O)Oc3ccc(-c4ccc(F)cc4)cc3O)CC2)cc1 [Example 66, 4′-fluoro-3-hydroxy-[1,1′-biphenyl]-4-yl 4-tosylpiperazine-1-carboxylate] | < 6.00 | 7.00 to 8.00 | 7.00 to 8.00 | < 6.00 |
| O=C(N1CC(Sc2ccc(Br)cc2)C1)n1cncn1 [Example 91] | 7.00 to 8.00 | 7.00 to 8.00 | 7.00 to 8.00 | 7.00 to 8.00 |
| N#Cc1cccnc1OC(=O)N1CCN(C2c3ccccc3-c3ccccc32)CC1 [Example 43, 3-cyanopyridin-2-yl 4-(9H-fluoren-9-yl)piperazine-1-carboxylate] | < 6.00 | 7.00 to 8.00 | 7.00 to 8.00 | < 6.00 |
| O=C(N1CC(N2CCC(c3ccccc3)CC2)C1)n1cnc2ccccc21 [Example 83, (1H-Benzo[d]imidazol-1-yl)(3-(4-phenylpiperidin-1-yl)azetidin-1-yl)methanone] | 7.00 to 8.00 | < 6.00 | < 6.00 | 7.00 to 8.00 |
| NC(=O)c1cccc(-c2cccc(NC(=O)N3CCN(C4c5ccccc5-c5ccccc54)CC3)c2)c1 [Example 8, N-(3′-carbamoyl-[1,1′-biphenyl]-3-yl)-4-(9H-fluoren-9-yl)piperazine-1-carboxamide] | 7.00 to 8.00 | < 6.00 | < 6.00 | 7.00 to 8.00 |
| NC(=O)c1cccc(-c2cccc(NC(=O)N3CCN(c4ccccc4)CC3)c2)c1 [Example 11, N-(3′-carbamoyl-[1,1′-biphenyl]-3-yl)-4-phenylpiperazine-1-carboxamide] | 7.00 to 8.00 | < 6.00 | < 6.00 | 7.00 to 8.00 |
| O=C(N1CCCCC1)N1CC(OCc2ccc(Br)cc2)C1 [Example 88] | 7.00 to 8.00 | 7.00 to 8.00 | 7.00 to 8.00 | 7.00 to 8.00 |
